From US3994908A, “Substituted acetic acid derivatives and production thereof” (Shionogi & Co., Ltd., priority 1972, dated 1976)

Key:
[1] = system: erythema; test: Anti-erythema activity by the Wilhelmi method, oral; format: in vivo; settings: Cavia porcellus, Guinea pig
Text: The anti-erythema activity was observed by the Wilhelmi method
[Wilhelmi,g.,(1949), Schweiz.Med.Wehnschr.,79, 577]. The anti-edema

[2] = in vivo; settings: mouse, po
Method: Arch. int. […] The toxicity was tested by the ora
administration of the tested compound to mice.

Work on `CCCCC1C(=O)N(c2ccccc2)N(c2ccccc2)C1=O` [Phenylbutazone, reference compound] yielded an ED50 [1] of 26 mg/kg.

`CC(C(=O)O)c1ccnc(Oc2ccccc2)c1` (stereo not drawn) [Calcium bis[2-(2-phenoxy-4-pyridyl)-propionate]] gave an ED50 [1] of 47 mg/kg and an LD50 [2] of 2250 mg/kg.

Work on `CC(C(=O)O)c1ccc(Oc2ccccc2)nc1` (stereo not drawn) [Calcium bis[2-(2-phenoxy-5-pyridyl)-propionate]] yielded an ED50 [1] of 21 mg/kg and an LD50 [2] of 1640 mg/kg.

Work on `CC(=O)Oc1ccccc1C(=O)O` [Aspirin, reference compound] yielded an ED50 [1] of 79 mg/kg and an LD50 [2] of 2000 mg/kg.

With `CC(C(=O)O)c1ccc(Oc2ccc(Cl)cc2)nc1` (stereo not drawn) [2-(2-p-Chlorophenoxy-5-pyridyl)-propionic acid] the ED50 [1] was 19 mg/kg and the LD50 [2] was 1150 mg/kg.
